Data published in patent US11186603B2, “Heparan sulfate glycomimetic compounds and their pharmaceutical and cosmeceutical uses” (VICTORIA LINK LIMITED, priority 2017, dated 2021).

Assays:
[1] = tested on: ND41001 (AD) fibroblast cell line; assay: NPC cholesterol activity: filipin staining, LSO ratio; format: cell-based, human; conditions: 48 hours
Source text: (§1) Fibroblast cell lines derived from Alzheimer and Niemann-Pick Type C (NPC) patients and healthy controls were obtained from the […] (Camden, N.J., USA). Cell line GM03123 was derived from a NPC patient with two heterozygous mutations in the NPC1 gene. Cell line GM09503 was used as a healthy control for the NPC cell line. Cell line ND41001 was derived from a patient carrying a Presenilin 1 mutation with familial (early onset) Alzheimer's disease (AD). Cell line ND38530 was used as a healthy control for the AD cell line. Further details of the cell lines are available at the Cornell Cell Repository website (https://catalog.coriell.org/).
(§2) Cell culture work was carried out in sterile conditions in an Email Air Handling Class II Biological Safety Cabinet (AES Environmental Pty LTD, Australia). All cell lines were cultured in DMEM (10313-021, Life Technologies New Zealand) supplemented with 10% fetal calf serum (Thermo Fisher Scientific New Zealand), 1× GlutaMAX™ Supplement (stabilised L-glutamine, Gibco Life Technologies New Zealand), 100 units/mL penicillin and 100 units/mL streptomycin (Life Technologies New Zealand). Cell lines were maintained in or 75 cm^2 flasks (Corning, Invitro Technologies New Zealand) in a humidified incubator (Sanyo Electric Co. Ltd, Japan) at 37° C. and 5% CO2. Experimental cultures were carried out in the same media omitting the antibiotics to avoid any potential interaction with the compound being tested.
(§3) For experiments, cells were seeded at a density of 1.25×10^3 cells/mL in black, 96 well plates (Cell-carrier, Perkin Elmer, Scimed New Zealand) in a volume of 100 μL media and grown for 24 hours before treating. The media was then replaced with fresh media supplemented with the required treatment. Cell lines GM03123 and ND41001 were either left untreated, or treated with either 10 μM or 100 μM of the heparan sulphate compound dissolved in sterile deionised water (dH20), 10 μM suberoylanilide hydroxamic acid (SAHA) dissolved in DMSO, or 0.1% DMSO. The healthy control cell lines GM09503 and ND38530 were left untreated or treated with U18666A dissolved in sterile dH20 at a final concentration of 1 μg/mL. U18666A causes cholesterol accumulation in the cell and is therefore a positive control for the filipin stain. Cells were then grown for 48 hours.
(§4) Before fixing, cells were washed three times with 1× phosphate buffered saline (PBS). From this point all treatments and washes were undertaken on a rotating table at 45 revs per minute. Cells were fixed with 1.5% paraformaldehyde (PFA) in 1×PBS (Thermo Fisher Scientific New Zealand) for 20 minutes. Cells were then washed with 1×PBS for four minutes. This was repeated twice. The cells were then stained for 2 hours with 50 μg/mL Filipin dye (Filipin complex from Streptomyces filipinensis, Sigma Aldrich, Australia) protected from the light. With minimal light exposure, the cells were washed with 1×PBS for four minutes and this was repeated twice. Cells were left in 1×PBS for confocal microscopy. The filipin stained cells were imaged using a Perkin Elmer Opera™ high-throughput spinning disk confocal microscope using 405 nm laser and 20× water immersion objective. Perkin Elmer Acapella™ software was used for image analysis. In NPC cells cholesterol accumulates in organelles with the characteristics of late endosomes or early lysosomes. These can be described as lysosome-like storage organelles (LSO). Analysis of free cholesterol levels in the cells was carried out using a method designed for high throughput confocal images described by Pipalia et al., Automated microscopy screening for compounds that partially revert cholesterol accumulation in Niemann-Pick C cells, J. Lipid Res., 2006, 47(2): 284-301. A low fluorescence threshold was chosen which identified the total area occupied by cells and another higher threshold was chosen to determine the areas of bright filipin staining of cholesterol within the cell. […]

[2] = tested on: GM03123 (NPC) fibroblast cell line; assay: as above; format: cell-based, human; conditions: for LSO %: GM03123 (NPC), 48 hours
Source text: as §1, §2, §3, §4

[3] = 10 μM, LSO ratio treated/untreated x 100

Row | SMILES | LSO % ([1]; 10 μM) [%] | LSO % ([1]; 100 μM) [%] | LSO % [2, 3] [%] | LSO % ([2]; 100 μM) [%] | effect on filipin (cholesterol) fluorescence (in words) ([2]; fibroblast cells derived from Niemann-Pick type C and Alzheimer's disease patients)
1 | O=C(CCCCCCCNC(=O)CCOCC(COCCC(=O)NCCCCCCCC(=O)NCCOCCOCCOCCC(=O)NCCCCCCOC1OC(COS(=O)(=O)[O-])C(OC2OC(COS(=O)(=O)[O-])C(OS(=O)(=O)[O-])C(OS(=O)(=O)[O-])C2OS(=O)(=O)[O-])C(OS(=O)(=O)[O-])C1OS(=O)(=O)[O-])(COCCC(=O)NCCCCCCCC(=O)NCCOCCOCCOCCC(=O)NCCCCCCOC1OC(COS(=O)(=O)[O-])C(OC2OC(COS(=O)(=O)[O-])C(OS(=O)(=O)[O-])C(OS(=O)(=O)[O-])C2OS(=O)(=O)[O-])C(OS(=O)(=O)[O-])C1OS(=O)(=O)[O-])COCCC(=O)NCCCCCCCC(=O)NCCOCCOCCOCCC(=O)NCCCCCCOC1OC(COS(=O)(=O)[O-])C(OC2OC(COS(=O)(=O)[O-])C(OS(=O)(=O)[O-])C(OS(=O)(=O)[O-])C2OS(=O)(=O)[O-])C(OS(=O)(=O)[O-])C1OS(=O)(=O)[O-])NCCOCCOCCOCCC(=O)NCCCCCCOC1OC(COS(=O)(=O)[O-])C(OC2OC(COS(=O)(=O)[O-])C(OS(=O)(=O)[O-])C(OS(=O)(=O)[O-])C2OS(=O)(=O)[O-])C(OS(=O)(=O)[O-])C1OS(=O)(=O)[O-].[Na+].[Na+].[Na+].[Na+].[Na+].[Na+].[Na+].[Na+].[Na+].[Na+].[Na+].[Na+].[Na+].[Na+].[Na+].[Na+].[Na+].[Na+].[Na+].[Na+].[Na+].[Na+].[Na+].[Na+].[Na+].[Na+].[Na+].[Na+] (stereo not shown) [Compound 25a] | 60.1 | 67.9 | 76.1 | 64.2 | positive effect on filipin (cholesterol) fluorescence
2 | O=C(CCCCCCC(=O)Nc1ccccc1)NO [SAHA, suberoylanilide hydroxamic acid, reference compound] | 42.4 | – | 43.0 | – | –
